Data published in patent US4835160A, “Derivatives of pyridoindole, having anti-tumor properties” (Sanofi, priority 1986, dated 1989).

How the values were obtained:
leukemia P388 = assay: Test for leukemia P388, IP/IP, D1; assay type: in vivo, CDF1 hybrid mice; settings: for Number of survivors: day D30; for T/C %: survival time
Protocol: The antitumour activity was tested in vivo on various tumours inoculated in various ways according to the following general protocol:
All the male or female mice are inoculated on day D0 with a known quantity of viable tumour cells for ascitic tumours or with a known tumour fragment for solid tumours.
They are then distributed into various groups. Each group, corresponding to the animals treated by the product under test, is made up of 10 mice. The product under test is dissolved in distilled water and it is administered n times (Dx-Dy), n, y, and x varying according to the protocol chosen, at the rate of 0.1 ml of solution per 10 g by weight of mice treated and at specific doses for each protocol.
The "negative control" group, corresponding to the animals which are not treated by the product, contains 2√N animals, N being equal to or greater than the total number of mice treated by the product in the same experiment.
Finally, the tests can also be carried out at the same time as the study of a group called "positive control", of ten animals, which is treated by a molecule, known for its antitumour activity and which can vary according to the protocol chosen, in the same conditions as the groups treated by the product under test.
The antitumour activity is evaluated, in the case of ascitic tumours, by considering the increase in the survival time of the animals treated in comparison to that of the animals in the "negative control" group, according to the formula: [formula]
Also, a product is considered as toxic at the dose studied when this T/C value is equal to or less than 85%. In addition, a product is also considered as toxic at the dose studied when the weight variation, expressed in grams and calculated by the formula: […]
The tests are carried out with CDF1 hybrid mice inoculated by intraperitoneal route with 10^6 leukemia cells from the P 388 line. The compound under test is administered for 5 successive days (D1-D5) by intraperitoneal route. The positive control for the test is 5-fluorouracile which is administered in the same conditions. The number of surviving animals is evaluated on day D30.
(b) Test for Leukemia P388, IP/IP, D1 (GERAN et al. Cancer chemother., 1972, 2, 07-57).
The test is carried out according to the preceding protocol, the compound under test being administered only on day D1.

leukemia P 388 = assay: Test of leukemia P 388; IP/IP, D1-5; assay type: in vivo, CDF1 hybrid mice; settings: D1-D5; for Number of survivors: day D30; for T/C %: survival time
Summary of the method: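 CDF1 hybrid mice received 10^6 P 388 cells intraperitoneally, then compound in distilled water by intraperitoneal route daily D1-D5, 10 mice per group, 5-fluorouracil as positive control. Activity judged as T/C survival time versus untreated controls, survivors counted at D30; T/C ≤85% or day 5 minus day 1 weight change ≤ −4 g counted as toxic.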

melanoma B 16 = assay: Test for melanoma B 16; assay type: in vivo, BDF1 hybrid mice; settings: D1-D9; for Number of survivors: day D60; for T/C %: survival time
Summary of the method: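 BDF1 mice inoculated i.p. with 0.5 ml B16 melanoma homogenate (1 g tumour in 10 ml physiological serum); compound given i.p. daily D1–D9, Cis-platine positive control under same conditions. Surviving animals counted on D60; activity as survival increase vs untreated controls (T/C), toxicity if T/C ≤85%.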

in vivo [1] = assay: in vivo; design: species or system CDF1 hybrid mice; settings: mouse, ip
Excerpt: The compounds of the invention benefit from a good tolerance and a weak toxicity.
Thus the administration, to healthy CDF1 hybrid mice, in a single injection by intraperitoneal route, of the compounds under test, has enabled it to be established that the product is perfectly tolerated at a high dosage since the survival rate of the animals of the experiment was 100 out of 100 thirteen days after administration.

in vivo [2] = assay: in vivo; design: species or system female CDF1 hybrid mice; settings: mouse, iv
Protocol: In addition the administration, to healthy female CDF1 hybrid mice, in a single injection by intravenous route with a perfusor, lasting 4 minutes, of the compounds under test in solution in physiological serum at a rate of 0.1 ml of solution per 10 g weight of the animals has enabled it to be established that the compounds are also well tolerated at a high dosage in these conditions.

CCN(CC)CCCNc1ncc(C)c2[nH]c3ccc(O)cc3c12 [Derivative No. 7, 1-(diethylaminopropylamino)-8-hydroxy-4-methyl-5H-pyrido[4,3-b]indole]
Median day of survival (leukemia P388; 10 mg/kg IP): 15.1 days
Variation by weight (g) (leukemia P388; 10 mg/kg IP): +1.2 g
Number of survivors (leukemia P388; 10 mg/kg IP): 0/10
T/C % (leukemia P388; 10 mg/kg IP): 129%
Median day of survival (leukemia P388; 20 mg/kg IP): 16.25 days
Variation by weight (g) (leukemia P388; 20 mg/kg IP): +0.2 g
Number of survivors (leukemia P388; 20 mg/kg IP): 0/10
T/C % (leukemia P388; 20 mg/kg IP): 139%
Median day of survival (leukemia P388; 40 mg/kg IP): 15.9 days
Variation by weight (leukemia P388; 40 mg/kg IP): -0.2 g
Number of survivors (leukemia P388; 40 mg/kg IP): 0/10
T/C % (leukemia P388; 40 mg/kg IP): 136%
Median day of survival (leukemia P388; 80 mg/kg IP): 2.3 days
Variation by weight (leukemia P388; 80 mg/kg IP): -1.7 g
Number of survivors (leukemia P388; 80 mg/kg IP): 0/10
T/C % (leukemia P388; 80 mg/kg IP): 20%
Median day of survival (leukemia P 388; 0.625 mg/kg IP): 14.3 days
Variation by weight (g) (leukemia P 388; 0.625 mg/kg IP): +0.3 g
Number of survivors (leukemia P 388; 0.625 mg/kg IP): 0/10
T/C % (leukemia P 388; 0.625 mg/kg IP): 127%
Median day of survival (leukemia P 388; 1.25 mg/kg IP): 17.25 days
Variation by weight (g) (leukemia P 388; 1.25 mg/kg IP): +0.3 g
Number of survivors (leukemia P 388; 1.25 mg/kg IP): 0/10
T/C % (leukemia P 388; 1.25 mg/kg IP): 153%
Median day of survival (leukemia P 388; 2.5 mg/kg IP): 18.25 days
Variation by weight (g) (leukemia P 388; 2.5 mg/kg IP): +0.1 g
Number of survivors (leukemia P 388; 2.5 mg/kg IP): 0/10
T/C % (leukemia P 388; 2.5 mg/kg IP): 162%
Median day of survival (leukemia P 388; 5 mg/kg IP): 19.25 days
Variation by weight (g) (leukemia P 388; 5 mg/kg IP): +0.3 g
Number of survivors (leukemia P 388; 5 mg/kg IP): 0/10
T/C % (leukemia P 388; 5 mg/kg IP): 170%
Median day of survival (leukemia P 388; 10 mg/kg IP): 20.9 days
Variation by weight (leukemia P 388; 10 mg/kg IP): -0.2 g
Number of survivors (leukemia P 388; 10 mg/kg IP): 0/10
T/C % (leukemia P 388; 10 mg/kg IP): 185%
Median day of survival (leukemia P 388; 15 mg/kg IP): 23.55 days
Variation by weight (g) (leukemia P 388; 15 mg/kg IP): +1.6 g
Number of survivors (leukemia P 388; 15 mg/kg IP): 3/10
T/C % (leukemia P 388; 15 mg/kg IP): 208%
Median day of survival (leukemia P 388; 20 mg/kg IP): 27.0 days
Variation by weight (leukemia P 388; 20 mg/kg IP): -1.1 g
Number of survivors (leukemia P 388; 20 mg/kg IP): 1/10
T/C % (leukemia P 388; 20 mg/kg IP): 238%
Median day of survival (leukemia P 388; 30 mg/kg IP): 9.25 days
Variation by weight (leukemia P 388; 30 mg/kg IP): 0.0 g
Number of survivors (leukemia P 388; 30 mg/kg IP): 0/10
T/C % (leukemia P 388; 30 mg/kg IP): 81%
Median day of survival (melanoma B 16; 2.5 mg/kg IP): 34 days
Variation by weight (g) (melanoma B 16; 2.5 mg/kg IP): +3.6 g
Number of survivors (melanoma B 16; 2.5 mg/kg IP): 0/10
T/C % (melanoma B 16; 2.5 mg/kg IP): 124%
Median day of survival (melanoma B 16; 5 mg/kg IP): 48 days
Variation by weight (melanoma B 16; 5 mg/kg IP): -0.1 g
Number of survivors (melanoma B 16; 5 mg/kg IP): 0/10
T/C % (melanoma B 16; 5 mg/kg IP): 174%
Median day of survival (melanoma B 16; 10 mg/kg IP): 56.25 days
Variation by weight (g) (melanoma B 16; 10 mg/kg IP): +1.6 g
Number of survivors (melanoma B 16; 10 mg/kg IP): 4/10
T/C % (melanoma B 16; 10 mg/kg IP): 205%
Median day of survival (melanoma B 16; 20 mg/kg IP): 58 days
Variation by weight (melanoma B 16; 20 mg/kg IP): -0.8 g
Number of survivors (melanoma B 16; 20 mg/kg IP): 5/10
T/C % (melanoma B 16; 20 mg/kg IP): 211%
Median day of survival (melanoma B 16; 30 mg/kg IP): 9.0 days
Variation by weight (melanoma B 16; 30 mg/kg IP): -1.0 g
Number of survivors (melanoma B 16; 30 mg/kg IP): 0/10
T/C % (melanoma B 16; 30 mg/kg IP): 33%
survival at 312 h (in vivo [1]; 50 mg/kg): 100%
survival at 192 h (in vivo [2]; 25 mg/kg): 100%
survival at 192 h (in vivo [2]; 30 mg/kg): 100%

Cc1cnc(NCCCN(C)C)c2c1[nH]c1ccc(O)cc12 [Derivative No. 10, 1-(3-dimethylaminopropylamino)-8-hydroxy-4-methyl-5H-pyrido[4,3-b]indole]
Median day of survival (leukemia P388; 5 mg/kg IP): 15.3 days
Variation by weight (leukemia P388; 5 mg/kg IP): -0.1 g
Number of survivors (leukemia P388; 5 mg/kg IP): 0/10
T/C % (leukemia P388; 5 mg/kg IP): 139%
Median day of survival (leukemia P388; 10 mg/kg IP): 15.25 days
Variation by weight (g) (leukemia P388; 10 mg/kg IP): +0.3 g
Number of survivors (leukemia P388; 10 mg/kg IP): 0/10
T/C % (leukemia P388; 10 mg/kg IP): 139%
Median day of survival (leukemia P388; 20 mg/kg IP): 15.6 days
Variation by weight (leukemia P388; 20 mg/kg IP): -0.8 g
Number of survivors (leukemia P388; 20 mg/kg IP): 0/10
T/C % (leukemia P388; 20 mg/kg IP): 142%
Median day of survival (leukemia P388; 40 mg/kg IP): 15.3 days
Variation by weight (leukemia P388; 40 mg/kg IP): -1.4 g
Number of survivors (leukemia P388; 40 mg/kg IP): 0/10
T/C % (leukemia P388; 40 mg/kg IP): 139%
Median day of survival (leukemia P 388; 0.625 mg/kg IP): 15.75 days
Variation by weight (g) (leukemia P 388; 0.625 mg/kg IP): +4.1 g
Number of survivors (leukemia P 388; 0.625 mg/kg IP): 0/10
T/C % (leukemia P 388; 0.625 mg/kg IP): 139%
Median day of survival (leukemia P 388; 1.25 mg/kg IP): 17.0 days
Variation by weight (g) (leukemia P 388; 1.25 mg/kg IP): +3.3 g
Number of survivors (leukemia P 388; 1.25 mg/kg IP): 0/10
T/C % (leukemia P 388; 1.25 mg/kg IP): 150%
Median day of survival (leukemia P 388; 2.5 mg/kg IP): 16.4 days
Variation by weight (g) (leukemia P 388; 2.5 mg/kg IP): +3.2 g
Number of survivors (leukemia P 388; 2.5 mg/kg IP): 0/10
T/C % (leukemia P 388; 2.5 mg/kg IP): 145%
Median day of survival (leukemia P 388; 5 mg/kg IP): 21.0 days
Variation by weight (g) (leukemia P 388; 5 mg/kg IP): +2.0 g
Number of survivors (leukemia P 388; 5 mg/kg IP): 1/10
T/C % (leukemia P 388; 5 mg/kg IP): 186%
Median day of survival (leukemia P 388; 10 mg/kg IP): 16.75 days
Variation by weight (g) (leukemia P 388; 10 mg/kg IP): +1.8 g
Number of survivors (leukemia P 388; 10 mg/kg IP): 0/10
T/C % (leukemia P 388; 10 mg/kg IP): 148%
Median day of survival (leukemia P 388; 20 mg/kg IP): 7.8 days
Variation by weight (leukemia P 388; 20 mg/kg IP): -0.4 g
Number of survivors (leukemia P 388; 20 mg/kg IP): 0/10
T/C % (leukemia P 388; 20 mg/kg IP): 69%
Median day of survival (melanoma B 16; 1.25 mg/kg IP): 32.0 days
Variation by weight (g) (melanoma B 16; 1.25 mg/kg IP): +2.8 g
Number of survivors (melanoma B 16; 1.25 mg/kg IP): 0/10
T/C % (melanoma B 16; 1.25 mg/kg IP): 116%
Median day of survival (melanoma B 16; 2.5 mg/kg IP): 38.75 days
Variation by weight (g) (melanoma B 16; 2.5 mg/kg IP): +1.8 g
Number of survivors (melanoma B 16; 2.5 mg/kg IP): 0/10
T/C % (melanoma B 16; 2.5 mg/kg IP): 141%
Median day of survival (melanoma B 16; 5 mg/kg IP): 44.0 days
Variation by weight (g) (melanoma B 16; 5 mg/kg IP): +2.4 g
Number of survivors (melanoma B 16; 5 mg/kg IP): 0/10
T/C % (melanoma B 16; 5 mg/kg IP): 160%
Median day of survival (melanoma B 16; 10 mg/kg IP): 11.7 days
Variation by weight (g) (melanoma B 16; 10 mg/kg IP): +0.5 g
Number of survivors (melanoma B 16; 10 mg/kg IP): 0/10
T/C % (melanoma B 16; 10 mg/kg IP): 42%
survival at 312 h (in vivo [1]; 100 mg/kg): 100%
survival at 192 h (in vivo [2]; 25 mg/kg): 100%
survival at 192 h (in vivo [2]; 40 mg/kg): 40%
